For twelve compounds, IC50 and rTRPM8 IC50 (calcium microfluorimetric assays) results are on record in article PMC8009520, “Exploration of TRPM8 Binding Sites by β-Carboline-Based Antagonists and Their In Vitro Characterization and In Vivo Analgesic Activities” (Journal of Medicinal Chemistry, 2020).

This assay addresses T1, rat isoform of TRPM8 channels (Rattus norvegicus, UniProt Q8R455).
T1 construct: expressed in transfected cells
Kind of assay: Ca2+ fluorimetric assay, menthol-activated channel. The class given is cell-based. On the procedure:
TRPM8 blocker activity of all synthesized compounds was tested by Ca^2+ fluorimetric assays using HEK-293 cells stably expressing the rat isoform of TRPM8 channels, using menthol and AMTB as prototypical agonist and antagonist, respectively.
For measurement of the potency of the compounds, fluorimetric experiments were performed using HEK-293 cells (CRL-1573TM, American Type Culture Collection, LGC Promochem, Molsheim, France) that stably express rat TRPM8. The cells were seeded in 96-well plates (Corning Incorporated, Corning, NY) at a cell density of 40 000 cells 2 days before treatment. On the day of treatment, the medium was replaced with 100 μL of the dye loading solution Fluo-4 NW supplemented with probenecid 2.5 mM.
The tested molecules dissolved in DMSO were added at the desired concentrations, and the plates were incubated in darkness at 37 °C in a humidified atmosphere of 5% CO2 for 60 min. The fluorescence was measured using instrument settings appropriate for excitation at 485 nm and emission at 535 nm (POLARstar Omega BMG LABtech). A baseline recording of four cycles was recorded prior to stimulation with the agonist (100 μM menthol for TRPM8). The TRPM8 antagonist, 10 μM AMTB, was added to the medium containing the corresponding agonist to induce channel blockade. The changes in fluorescence intensity were recorded during 15 cycles more. The higher concentration of DMSO used in the experiment was added to the control wells. The cells’ fluorescence was measured before and after the addition of various concentrations of test compounds. The fluorescence values obtained are normalized to that prompted by the corresponding agonist (for channel activating compounds) or upon agonist and antagonist coexposure (for channel blocker compounds).

Setting [1] is: HEK-293 cells stably expressing rat TRPM8, menthol as agonist, mean ± SD of at least three measurements, read-out: IC50.
[2] abbreviates: supplementary xlsx, read-out: rTRPM8 IC50 (calcium microfluorimetric assays).

Read-outs that look alike come from different tables or passages of the source.

T1 sequence (Q8R455 whole entry, canonical isoform): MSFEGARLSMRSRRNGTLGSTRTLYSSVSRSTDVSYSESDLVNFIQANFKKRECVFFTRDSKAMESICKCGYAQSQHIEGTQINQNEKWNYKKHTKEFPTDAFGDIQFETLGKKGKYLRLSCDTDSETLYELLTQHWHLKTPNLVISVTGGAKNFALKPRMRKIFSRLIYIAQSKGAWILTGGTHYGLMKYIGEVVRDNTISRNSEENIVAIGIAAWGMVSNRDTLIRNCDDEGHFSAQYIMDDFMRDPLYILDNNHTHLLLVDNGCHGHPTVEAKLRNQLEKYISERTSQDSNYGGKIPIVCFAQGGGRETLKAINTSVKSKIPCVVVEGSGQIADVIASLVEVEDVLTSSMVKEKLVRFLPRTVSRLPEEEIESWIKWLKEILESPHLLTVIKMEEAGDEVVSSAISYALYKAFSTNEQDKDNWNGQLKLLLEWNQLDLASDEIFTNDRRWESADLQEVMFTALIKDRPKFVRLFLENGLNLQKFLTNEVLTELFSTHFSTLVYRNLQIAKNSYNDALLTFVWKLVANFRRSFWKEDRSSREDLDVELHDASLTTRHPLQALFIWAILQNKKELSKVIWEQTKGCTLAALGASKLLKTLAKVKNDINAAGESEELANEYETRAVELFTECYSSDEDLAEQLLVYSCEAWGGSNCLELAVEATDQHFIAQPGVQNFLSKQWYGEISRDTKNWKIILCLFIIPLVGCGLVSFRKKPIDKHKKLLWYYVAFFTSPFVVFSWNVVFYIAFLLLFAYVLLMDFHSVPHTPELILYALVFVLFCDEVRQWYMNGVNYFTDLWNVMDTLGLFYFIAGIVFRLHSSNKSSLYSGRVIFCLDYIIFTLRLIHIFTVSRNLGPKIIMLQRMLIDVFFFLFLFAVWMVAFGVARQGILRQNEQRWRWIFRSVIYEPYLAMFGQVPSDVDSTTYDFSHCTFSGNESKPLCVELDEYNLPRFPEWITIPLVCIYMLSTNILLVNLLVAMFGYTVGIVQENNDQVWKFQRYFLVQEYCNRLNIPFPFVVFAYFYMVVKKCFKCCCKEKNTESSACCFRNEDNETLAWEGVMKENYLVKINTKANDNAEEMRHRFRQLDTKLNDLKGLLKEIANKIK

For `COC(=O)[C@@H]1Cc2c([nH]c3ccccc23)[C@H](c2ccccc2)N1Cc1ccccc1` [6b, (1S,3S)-Methyl 2-Benzyl-1-phenyl-2,3,4,9-tetrahydro-1H-pyrido[3,4-b]indole-3-carboxylate], the IC50 under setting [1] stood at 1600 ± 900 nM and the IC50 under setting [2] came to 1400 ± 1300 nM.

As to `CC(C)C[C@H]1N[C@H](C(=O)NCc2ccc(F)cc2)Cc2c1[nH]c1ccccc21` [10a, (1R,3S)-N-(4-Fluorobenzyl)-1-isobutyl-2,3,4,9-tetrahydro-1H-pyrido[3,4-b]indole-3-carboxamide], the IC50 under setting [1] was determined as 4600 ± 1300 nM.

As to `CC(C)C[C@@H]1N[C@H](C(=O)NCc2ccc(F)cc2)Cc2c1[nH]c1ccccc21` [10b, (1S,3S)-N-(4-Fluorobenzyl)-1-isobutyl-2,3,4,9-tetrahydro-1H-pyrido[3,4-b]indole-3-carboxamide], under setting [1], the IC50 was 6200 ± 1200 nM.

Consider `COC(=O)CC[C@@H]1N[C@H](C(=O)NCc2ccc(F)cc2)Cc2c1[nH]c1ccccc21` [11b, Methyl 3-((1S,3S)-3-((4-Fluorobenzyl)carbamoyl)-2,3,4,9-tetrahydro-1H-pyrido[3,4-b]indol-1-yl)propanoate], for which the IC50 under setting [1] was 3000 ± 1200 nM.

On to `O=C(O)CC[C@@H]1N[C@H](C(=O)NCc2ccc(F)cc2)Cc2c1[nH]c1ccccc21` [12b, 3-((1S,3S)-3-((4-Fluorobenzyl)carbamoyl)-2,3,4,9-tetrahydro-1H-pyrido[3,4-b]indol-1-yl)propanoic Acid], for which, under setting [1], the IC50 came to 22000 ± 1400 nM.

In the case of `CC(C)C[C@@H]1c2[nH]c3ccccc3c2C[C@H]2C(=O)N[C@@H](Cc3ccccc3)C(=O)N12` [25a, (3S,6R,12aS)-3-Benzyl-6-isobutyl-2,3,12,12a-tetrahydropyrazino[1′,2′:1,6]pyrido[3,4-b]indole-1,4(6H,7H)-dione], the IC50 under setting [1] is 4100 ± 1100 nM.

Take `CC(C)C[C@H]1c2[nH]c3ccccc3c2C[C@H]2C(=O)N[C@@H](Cc3ccccc3)C(=O)N21` [25b, (3S,6S,12aS)-3-Benzyl-6-isobutyl-2,3,12,12a-tetrahydropyrazino[1′,2′:1,6]pyrido[3,4-b]indole-1,4(6H,7H)-dione]: the IC50 runs as follows: under setting [1], 1300 ± 600 nM; under setting [2], 900 ± 1200 nM.

Turning to `O=C1NCC(=O)N2[C@H](c3ccc(Cl)cc3)c3[nH]c4ccccc4c3C[C@@H]12` [27a, (6R,12aS)-6-(4-Chlorophenyl)-2,3,12,12a-tetrahydropyrazino[1′,2′:1,6]pyrido[3,4-b]indole-1,4(6H,7H)-dione], under setting [1], the concentration for half-maximal inhibition (IC50) was 1500 ± 1100 nM.

On to `O=C1NCC(=O)N2[C@@H](c3ccc(Cl)cc3)c3[nH]c4ccccc4c3C[C@@H]12` [27b, (6S,12aS)-6-(4-Chlorophenyl)-2,3,12,12a-tetrahydropyrazino[1′,2′:1,6]pyrido[3,4-b]indole-1,4(6H,7H)-dione], for which the IC50 under setting [1] was 1700 ± 800 nM and the IC50 under setting [2] was 1200 ± 1700 nM.

Turning to `COc1ccc(CN2C(=O)[C@@H]3Cc4c([nH]c5ccccc45)[C@@H](CC(C)C)N3C2=O)cc1` [29a, (5R,11aS)-5-Isobutyl-2-(4-methoxybenzyl)-5,6,11,11a-tetrahydro-1H-imidazo[1′,5′:1,6]pyrido[3,4-b]indole-1,3(2H)-dione], under setting [1], the IC50 was 2800 ± 1200 nM. Further, the rTRPM8 IC50 (calcium microfluorimetric assays) (supplementary xlsx) turned out to be 22.9 ± 1.4 µM.

With `COc1ccc(CN2C(=O)[C@H]3Cc4c([nH]c5ccccc45)[C@H](CC(C)C)N3C2=O)cc1` [29a′, (5S,11aR)-5-Isobutyl-2-(4-methoxybenzyl)-5,6,11,11a-tetrahydro-1H-imidazo[1′,5′:1,6]pyrido[3,4-b]indole-1,3(2H)-dione], under setting [1], the IC50 turned out to be 22900 ± 1400 nM.

As for `Cc1ccc(CN2C(=O)[C@@H]3Cc4c([nH]c5ccccc45)[C@@H](c4ccc(Cl)cc4)N3C2=O)cc1` [30a, (5R,11aS)-5-(4-Chlorophenyl)-2-(4-methylbenzyl)-5,6,11,11a-tetrahydro-1H-imidazo[1′,5′:1,6]pyrido[3,4-b]indole-1,3(2H)-dione], the IC50 under setting [1] stood at 800 ± 400 nM. Also, the rTRPM8 IC50 (calcium microfluorimetric assays) (supplementary xlsx) was determined as 2.3 ± 0.8 µM.
